Series [1] has as its system thioredoxin reductase (TrxR). As to the kind of experiment: Thioredoxin reductase activity in lysates of treated PC3 cells. As to conditions: PC3, C6 at IC25, IC50, IC75, 12 h.
Description: All experimental conditions were tested in triplicate and experiments were done three times to calculate means and SD.
Thioredoxin reductase (TrxR) (EC 1.8.1.9) was assayed using the Thioredoxin Reductase Assay Kit (Sigma-Aldrich). […] Enzyme activity was determined reading absorbance at 412 nm using a spectrophotometer (Biomate 3 Thermo Spectronic). The enzymatic activity was normalized to the protein concentration, determined using the Bio-Rad protein assay (Protein Assay Dye Reagent Concentrate, Bio-Rad Laboratories), and expressed as percentage of control (no C6).
In series [2] the test system is PC3 cells. Kind of series: Reactive oxygen species production (H2DCFDA). Particulars: PC3, C6 at IC50 and IC75, 24 h. Format: cell-based, human. How it is done: The production of reactive oxygen species (ROS) was evaluated using 2′,7′-dichlorodihydrofluorescein diacetate (H2DCFDA) (H2-DCF, DCF) (Invitrogen). Cells were pretreated with the antioxidant N-acetyl-L-cysteine (NAC; 5 mM) (Sigma) for 30 min before C6 was added. After 24 h of C6 treatment, cells were harvested and viable cells were counted by trypan blue dye exclusion. Then cells were washed, stained with 1 μM H2DCFDA for 30 min at 37° C., and finally ROS production was analyzed by flow cytometry.

Series [3] relates to PC3 cells. As to the kind of experiment: Apoptosis assay (Annexin V-FITC / propidium iodide, flow cytometry). Format: cell-based, human. Particulars: PC3, C6 at IC50 and IC75, 24 h. The protocol: For apoptosis assays, PC3 cells were treated with C6 for 24 h and then apoptosis was assayed by staining for 15 min with FITC Annexin V reagent (BD Pharmingen) and propidium iodide (PI). Apoptotic cells were detected by flow cytometry (BD FACSCanto II flow cytometer) and analyzed using BD FACSDiva v8.0.1 software (BD Biosciences). Caspase 3,7 activation was evaluated using fluorochrome-labeled inhibitors of caspases (FLICA) of the CaspaTag Caspase 3,7 In Situ Assay Kit, Fluorescein (Millipore) and evaluated by flow cytometry; data were expressed as mean fluorescence intensity.
(In flow cytometry, cells or beads pass a laser one at a time.)

Series [4] concerns PC3 cells. Kind of series: Cell cycle distribution (PI staining). Format: cell-based, human. Particulars: vs untreated cells. How it is done:
To assay the distribution of cells in the various phases of the cell cycle, PC3 cells were treated with C6 for 48 h, then harvested, fixed in cold 70% ethanol for 15 min and stained with PI solution (50 μg/mL PI, 0.1% NP-40, 100 μg/mL PureLink RNase A, 0.1% sodium citrate). After 1 h, cells were analyzed by flow cytometry. The distribution of cells in different cell cycle phases was quantified using ModFit LT 4.0 software.

The test system of a further series is PC3 cell xenografts. Kind of series: Human prostate tumor xenograft experiment. Format: in vivo, female athymic nude mice. The protocol:
Animal experiments were approved by the Italian Ministry of Health (no. 671/2015/PR). Ten 4-week-old female athymic nu/nu (nude) mice were purchased from Envigo. PC3 cells (3×10^6 in a 0.1 mL solution of Matrigel 1:3 in PBS) were inoculated subcutaneously into the right flank of each mouse. Body weight and tumors were measured three times a week, and tumor volumes were calculated according to the formula: (width^2×length×3.14)/6. When tumors reached a volume of ca. 120 mm^3, mice were divided into two groups of five animals each. Mice were treated every other day with an intratumoral injection of 2.5 mg/kg C6 or an equal volume of vehicle (10% DMSO, 20% Cremophor Sigma-Aldrich, 70% PBS). Mice were killed on day 32 when control tumors had reached about 1300 mm^3.
(Xenograft models place foreign cells or tissue in a host animal.)

SMILES strings stand for the structures.

Consider `C[N+](C)=C1[S][Au-]2([S]1)[n+]1ccc[n+]3c1-c1[n+]2ccc[n+]1[Au-]31[S]C(=[N+](C)C)[S]1.[Cl-].[Cl-].[Cl-].[Cl-]` [C6, [Au2(BPM)(DMDTC)2]Cl4], for which, in series [1], the TrxR enzymatic activity result is recorded as “dose-dependent decrease of its enzymatic activity”. The ROS production result in the series on PC3 cells [2] was “induced ROS production in a dose-dependent manner”. In the series on PC3 cells [3], the “percentage of annexin-V-positive and annexin-V/PI-positive cells (apoptosis)” value is given as “dose-dependent increase in the percentage of annexin-V-positive cells”. The “distribution of cells in the cell cycle” value with PC3 cells [4] was “increasing the percentage of cells in S phase and decreasing that in G1”. For the same molecule, the “inhibitory effect on tumor growth” value with PC3 cell xenografts (day 32, 2.5 mg/kg intratumoral every other day, vs vehicle) is 71%. This molecule registered a mean tumor volume in the series on PC3 cell xenografts (day 32, 2.5 mg/kg intratumoral every other day, control 1327 mm^3) of 385 mm^3. Moreover, the “weight of the animals” value in the series on PC3 cell xenografts (xenografted mice, 2.5 mg/kg intratumoral) is on record as “did not affect the weight of the animals”.

Values taken from patent publication US12103939B2, “Solid pharmaceutical gold-based composition” (KING FAHD UNIVERSITY OF PETROLEUM AND MINERALS, priority 2019, dated 2024).
